Literature values in patent US20200206184A1, “PHARMACEUTICAL COMPOSITIONS FOR THE TREATMENT OF DISEASE AND/OR SYMPTOMS IN ARTHRITIS” (priority 2004, published 2020).

Legend:
[1] = tested on: PBQ-induced writhing in mice; settings: ranking among cannabinoids
[2] = tested on: collagen induced arthritis model in mice
[3] = tested on: patient with Mediterranean fever; settings: 50 mg of THC

SMILES | Inhibition of PBQ-induced writhing ([1]; mice, oral administration) | TNF-α production (TNF-α) | Nitric oxide production (nitric oxide) | Arthritis in collagen induced arthritis model [2] | Reducing analgesia and inflammation [1] | Amount of analgesia that the patient required [3]
C=C(C)[C@@H]1CCC(C)=C[C@H]1c1c(O)cc(CCCCC)cc1O [CBD, cannabidiol] | most effective | inhibition | inhibition | suppress arthritis in a dose dependant manner | – | –
CCCCCc1cc(O)c2c(c1)OC(C)(C)c1ccc(C)cc1-2 [CBN] | – | – | – | – | least effective | –
CCCCCc1cc(O)c2c(c1)OC(C)(C)[C@@H]1CCC(C)=C[C@@H]21 [THC, delta-9-tetrahydrocannabinol] | – | – | – | – | least effective | highly significant reduction
